Data taken from ChEMBL document CHEMBL1909046, “DrugMatrix in vitro pharmacology data”.

Columns and labels:
[1] = target: Delta-type opioid receptor (Homo sapiens, UniProt P41143); type: cell membranes, HEK293, Membrane; details: hek293; further: in other assays of this panel Not Active means under 50% inhibition at 10 µM
[2] = target: T1, Neuropeptide Y receptor type 1 (Homo sapiens, UniProt P25929); type: cell membranes, Membrane; details: sk-n-mc; further: in other assays of this panel Not Active means under 50% inhibition at 10 µM
T1 sequence (P25929 whole entry): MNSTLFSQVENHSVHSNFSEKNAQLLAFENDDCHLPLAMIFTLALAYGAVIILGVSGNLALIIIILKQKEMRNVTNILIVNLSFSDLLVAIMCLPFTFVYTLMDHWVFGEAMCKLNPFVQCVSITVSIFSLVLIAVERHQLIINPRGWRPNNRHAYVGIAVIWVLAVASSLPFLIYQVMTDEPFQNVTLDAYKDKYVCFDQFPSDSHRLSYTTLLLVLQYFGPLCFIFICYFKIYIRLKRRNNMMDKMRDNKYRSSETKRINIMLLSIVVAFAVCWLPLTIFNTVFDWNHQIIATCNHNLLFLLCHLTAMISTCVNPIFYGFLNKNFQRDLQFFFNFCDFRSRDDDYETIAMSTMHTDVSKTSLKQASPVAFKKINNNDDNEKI

[3] = target: Tyrosine-protein kinase Fyn (Homo sapiens, UniProt P06241); test: biochemical; type: cell-based, Insect cells;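 further: enzymatic inhibition of Fyn kinase activity measured with Poly(Glu:Tyr) as the phosphorylation substrate; in other assays of this panel Not Active means under 50% inhibition at 10 µM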
[4] = target: T2, C-X-C chemokine receptor type 2 (Homo sapiens, UniProt P25025); type: cell membranes, Membrane; details: cho-k1; further: in other assays of this panel Not Active means under 50% inhibition at 10 µM
T2 sequence (P25025 whole entry): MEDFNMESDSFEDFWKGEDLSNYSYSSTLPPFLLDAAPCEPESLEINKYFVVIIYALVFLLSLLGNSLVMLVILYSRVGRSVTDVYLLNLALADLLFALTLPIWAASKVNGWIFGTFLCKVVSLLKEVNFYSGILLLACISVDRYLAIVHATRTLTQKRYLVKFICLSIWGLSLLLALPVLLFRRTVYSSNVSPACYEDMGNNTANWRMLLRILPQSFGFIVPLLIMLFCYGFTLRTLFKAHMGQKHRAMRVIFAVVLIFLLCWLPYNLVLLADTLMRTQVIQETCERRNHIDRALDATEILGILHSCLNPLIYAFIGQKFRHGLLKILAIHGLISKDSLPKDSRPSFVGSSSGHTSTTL

[5] = target: T3, Type-2 angiotensin II receptor (Homo sapiens, UniProt P50052); type: cell-based; details: cho-k1; further: in other assays of this panel Not Active means under 50% inhibition at 10 µM
T3 sequence (P50052 whole entry): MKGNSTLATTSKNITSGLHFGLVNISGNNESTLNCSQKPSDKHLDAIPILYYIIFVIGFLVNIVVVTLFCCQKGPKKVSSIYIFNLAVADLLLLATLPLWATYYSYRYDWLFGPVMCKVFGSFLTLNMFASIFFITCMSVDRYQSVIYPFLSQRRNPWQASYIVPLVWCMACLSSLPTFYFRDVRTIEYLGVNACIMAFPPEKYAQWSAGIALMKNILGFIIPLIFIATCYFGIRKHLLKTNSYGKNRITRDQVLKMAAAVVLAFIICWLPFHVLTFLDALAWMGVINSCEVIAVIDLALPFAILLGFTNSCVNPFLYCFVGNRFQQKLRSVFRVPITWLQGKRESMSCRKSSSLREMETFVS

[6] = DRUGMATRIX: Potassium Channel [KATP] radioligand binding (ligand: [3H] Glyburide); type: cell membranes, Membrane; details: hit-t15; Not Active = under 50% inhibition at 10 µM
[7] = target: Matrix metalloproteinase-9 (Homo sapiens, UniProt P14780); test: biochemical; type: cell-based
[8] = target: C-C chemokine receptor type 2 (Homo sapiens, UniProt P41597); type: cell membranes, CHO-K1, Membrane; details: cho-k1; further: in other assays of this panel Not Active means under 50% inhibition at 10 µM
[9] = target: T4, Substance-K receptor (Homo sapiens, UniProt P21452); type: cell membranes, CHO, Membrane; details: cho; further: in other assays of this panel Not Active means under 50% inhibition at 10 µM
T4 sequence (P21452 whole entry): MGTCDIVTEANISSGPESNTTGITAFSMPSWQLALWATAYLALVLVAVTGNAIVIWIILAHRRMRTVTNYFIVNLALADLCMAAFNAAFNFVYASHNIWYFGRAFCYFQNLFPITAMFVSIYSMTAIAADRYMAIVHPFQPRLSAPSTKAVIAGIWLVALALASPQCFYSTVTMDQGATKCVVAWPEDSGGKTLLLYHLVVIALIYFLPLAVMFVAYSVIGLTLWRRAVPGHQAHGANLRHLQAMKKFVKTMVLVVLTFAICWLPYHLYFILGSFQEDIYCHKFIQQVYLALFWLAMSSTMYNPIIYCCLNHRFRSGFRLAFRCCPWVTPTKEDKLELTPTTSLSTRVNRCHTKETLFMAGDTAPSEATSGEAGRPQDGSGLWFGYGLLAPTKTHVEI

[10] = target: T5, Endothelin-1 receptor (Homo sapiens, UniProt P25101); type: cell membranes, Membrane; details: cho-k1; further: in other assays of this panel Not Active means under 50% inhibition at 10 µM
T5 sequence (P25101 whole entry): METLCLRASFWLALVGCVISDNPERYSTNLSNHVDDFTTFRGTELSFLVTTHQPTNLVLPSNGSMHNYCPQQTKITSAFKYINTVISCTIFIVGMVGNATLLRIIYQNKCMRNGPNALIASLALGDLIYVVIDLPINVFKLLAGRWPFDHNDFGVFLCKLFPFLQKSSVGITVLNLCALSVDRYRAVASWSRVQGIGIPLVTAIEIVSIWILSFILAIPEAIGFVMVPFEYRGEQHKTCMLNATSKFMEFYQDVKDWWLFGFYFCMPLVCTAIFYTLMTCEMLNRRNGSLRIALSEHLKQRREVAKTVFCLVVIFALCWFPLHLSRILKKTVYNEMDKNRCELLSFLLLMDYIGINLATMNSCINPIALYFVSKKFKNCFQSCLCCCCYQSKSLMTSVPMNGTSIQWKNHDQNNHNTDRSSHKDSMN

Tyrosine-protein kinase Fyn, sequence (P06241 whole entry): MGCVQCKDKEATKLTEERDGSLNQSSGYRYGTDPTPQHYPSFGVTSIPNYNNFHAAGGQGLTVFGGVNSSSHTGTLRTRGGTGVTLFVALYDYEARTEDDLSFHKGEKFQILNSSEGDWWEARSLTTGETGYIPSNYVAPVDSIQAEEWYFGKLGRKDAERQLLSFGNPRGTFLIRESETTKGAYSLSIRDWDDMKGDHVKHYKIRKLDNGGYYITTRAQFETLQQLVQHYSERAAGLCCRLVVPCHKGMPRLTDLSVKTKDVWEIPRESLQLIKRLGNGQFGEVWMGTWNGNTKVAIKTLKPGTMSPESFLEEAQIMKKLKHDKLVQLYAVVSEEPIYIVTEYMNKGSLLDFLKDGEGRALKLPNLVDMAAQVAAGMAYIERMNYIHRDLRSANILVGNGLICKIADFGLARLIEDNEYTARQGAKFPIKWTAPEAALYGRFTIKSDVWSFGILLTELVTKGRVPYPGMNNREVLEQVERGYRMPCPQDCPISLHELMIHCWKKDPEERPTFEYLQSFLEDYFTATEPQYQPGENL
Matrix metalloproteinase-9, sequence (P14780 whole entry): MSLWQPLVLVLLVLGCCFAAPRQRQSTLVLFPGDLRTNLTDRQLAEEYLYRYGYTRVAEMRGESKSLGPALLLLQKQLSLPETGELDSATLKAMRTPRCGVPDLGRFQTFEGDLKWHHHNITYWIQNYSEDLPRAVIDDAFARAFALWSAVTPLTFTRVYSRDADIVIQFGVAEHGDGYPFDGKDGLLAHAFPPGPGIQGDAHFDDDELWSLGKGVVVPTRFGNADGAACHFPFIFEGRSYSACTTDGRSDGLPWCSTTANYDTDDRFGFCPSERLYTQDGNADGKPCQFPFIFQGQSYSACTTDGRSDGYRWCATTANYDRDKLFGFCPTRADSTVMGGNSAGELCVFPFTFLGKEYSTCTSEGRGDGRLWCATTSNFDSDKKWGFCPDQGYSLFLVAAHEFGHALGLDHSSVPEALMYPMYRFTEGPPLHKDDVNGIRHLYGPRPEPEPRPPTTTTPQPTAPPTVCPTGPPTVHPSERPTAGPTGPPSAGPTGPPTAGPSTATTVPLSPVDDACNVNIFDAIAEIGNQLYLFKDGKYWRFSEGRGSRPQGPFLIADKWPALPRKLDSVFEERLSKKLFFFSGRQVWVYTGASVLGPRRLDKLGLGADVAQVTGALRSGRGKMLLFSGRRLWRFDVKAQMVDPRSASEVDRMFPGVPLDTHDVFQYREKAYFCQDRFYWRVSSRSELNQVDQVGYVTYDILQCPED
C-C chemokine receptor type 2, sequence (P41597 whole entry): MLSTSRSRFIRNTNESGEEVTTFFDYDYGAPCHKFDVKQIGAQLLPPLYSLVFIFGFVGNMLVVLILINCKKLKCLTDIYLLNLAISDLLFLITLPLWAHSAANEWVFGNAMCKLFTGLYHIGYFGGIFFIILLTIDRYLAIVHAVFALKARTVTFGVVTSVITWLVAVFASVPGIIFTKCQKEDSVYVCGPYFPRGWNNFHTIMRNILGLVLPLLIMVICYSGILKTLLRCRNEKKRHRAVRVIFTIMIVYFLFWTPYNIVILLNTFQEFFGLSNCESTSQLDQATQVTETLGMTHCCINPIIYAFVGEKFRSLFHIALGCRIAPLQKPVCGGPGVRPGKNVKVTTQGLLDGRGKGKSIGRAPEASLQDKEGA
Delta-type opioid receptor, sequence (P41143 whole entry): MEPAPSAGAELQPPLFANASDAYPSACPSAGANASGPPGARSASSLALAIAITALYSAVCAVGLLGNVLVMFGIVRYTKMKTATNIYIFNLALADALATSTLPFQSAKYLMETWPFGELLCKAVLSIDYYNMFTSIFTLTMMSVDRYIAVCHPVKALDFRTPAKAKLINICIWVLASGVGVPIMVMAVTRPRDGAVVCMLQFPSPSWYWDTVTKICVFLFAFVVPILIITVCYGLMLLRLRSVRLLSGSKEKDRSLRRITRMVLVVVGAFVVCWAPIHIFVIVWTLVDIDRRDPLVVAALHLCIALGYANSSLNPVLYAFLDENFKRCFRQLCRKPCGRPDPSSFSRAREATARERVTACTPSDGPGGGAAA

CC[C@]1(O)C[C@@H]2CN(CCc3c([nH]c4ccccc34)[C@@](C(=O)OC)(c3cc4c(cc3OC)N(C)[C@H]3[C@@](O)(C(=O)OC)[C@H](OC(C)=O)[C@]5(CC)C=CCN6CC[C@]43[C@@H]65)C2)C1 [VINBLASTINE]
IC50 [1]: Not Active | IC50 [2]: Not Active | IC50 ([3]; insect cells): Not Active | IC50 [4]: Not Active | IC50 [5]: Not Active | IC50 [6]: Not Active | Ki [6]: Not Active | IC50 [7]: Not Active | IC50 [8]: Not Active | IC50 [9]: Not Active | IC50 [10]: Not Active

COCCOC(=O)C1=C(C)NC(C)=C(C(=O)OC(C)C)C1c1cccc([N+](=O)[O-])c1 (stereo not drawn) [NIMODIPINE]
IC50 [1]: Not Active | IC50 [2]: Not Active | IC50 ([3]; insect cells): Not Active | IC50 [4]: Not Active | IC50 [5]: Not Active | IC50 [6]: Not Active | Ki [6]: Not Active | IC50 [7]: Not Active | IC50 [8]: Not Active | IC50 [9]: Not Active | IC50 [10]: Not Active

COc1cc(NS(=O)(=O)c2ccc(N)cc2)nc(OC)n1 [SULFADIMETHOXINE]
IC50 [1]: Not Active | IC50 [2]: Not Active | IC50 ([3]; insect cells): Not Active | IC50 [4]: Not Active | IC50 [5]: Not Active | IC50 [6]: Not Active | Ki [6]: Not Active | IC50 [7]: Not Active | IC50 [8]: Not Active | IC50 [9]: Not Active | IC50 [10]: Not Active

C[C@]1(Cn2ccnn2)[C@H](C(=O)O)N2C(=O)C[C@H]2S1(=O)=O [TAZOBACTAM]
IC50 [1]: Not Active | IC50 [2]: Not Active | IC50 ([3]; insect cells): Not Active | IC50 [4]: Not Active | IC50 [5]: Not Active | IC50 [6]: Not Active | Ki [6]: Not Active | IC50 [7]: Not Active | IC50 [8]: Not Active | IC50 [9]: Not Active | IC50 [10]: Not Active

[Cl-].[Cl-].[Zn+2] [ZINC CHLORIDE]
IC50 [1]: Not Active | IC50 [2]: Not Active | IC50 ([3]; read-out: IC50): 1880 nM | IC50 [4]: Not Active | IC50 [5]: Not Active | IC50 [6]: Not Active | Ki [6]: Not Active | IC50 [7]: Not Active | IC50 [8]: Not Active | IC50 [9]: Not Active | IC50 [10]: Not Active

CN1C(C(=O)Nc2ccccn2)=C(O)c2sccc2S1(=O)=O [TENOXICAM]
IC50 [1]: Not Active | IC50 [2]: Not Active | IC50 ([3]; insect cells): Not Active | IC50 [4]: Not Active | IC50 [5]: Not Active | IC50 [6]: Not Active | Ki [6]: Not Active | IC50 [7]: Not Active | IC50 [8]: Not Active | IC50 [9]: Not Active | IC50 [10]: Not Active

CC(=O)N[C@@H]1[C@H](Oc2c3cc4cc2Oc2ccc(cc2Cl)[C@@H](O[C@@H]2O[C@@H](CO)[C@@H](O)[C@H](O)[C@@H]2NC(C)=O)[C@@H]2NC(=O)[C@H](NC(=O)[C@@H]4NC(=O)[C@H]4NC(=O)[C@@H](Cc5ccc(c(Cl)c5)O3)NC(=O)[C@H](N)c3ccc(O)c(c3)Oc3cc(O)cc4c3)c3ccc(O)c(c3)-c3c(O[C@H]4O[C@H](CO)[C@@H](O)[C@@H](O)[C@@H]4O)cc(O)cc3[C@@H](C(=O)O)NC2=O)O[C@@H](CO)[C@@H](O)[C@@H]1O
IC50 [1]: Not Active | IC50 [2]: Not Active | IC50 ([3]; insect cells): Not Active | IC50 [4]: Not Active | IC50 [5]: Not Active | IC50 [6]: Not Active | Ki [6]: Not Active | IC50 [7]: Not Active | IC50 [8]: Not Active | IC50 [9]: Not Active | IC50 [10]: Not Active

COCCCOc1ccnc(C[S+]([O-])c2nc3ccccc3[nH]2)c1C (stereo not drawn) [RABEPRAZOLE]
IC50 [1]: Not Active | IC50 [2]: Not Active | IC50 ([3]; insect cells): Not Active | IC50 [4]: Not Active | IC50 [5]: Not Active | IC50 [6]: Not Active | Ki [6]: Not Active | IC50 [7]: Not Active | IC50 [8]: Not Active | IC50 [9]: Not Active | IC50 [10]: Not Active

CO[C@H]1/C=C/O[C@@]2(C)Oc3c(C)c(O)c4c(c3C2=O)C2=NC3(CCN(CC(C)C)CC3)NC2=C(NC(=O)/C(C)=C\C=C\[C@H](C)[C@H](O)[C@@H](C)[C@@H](O)[C@@H](C)[C@H](OC(C)=O)[C@@H]1C)C4=O [RIFABUTIN]
IC50 [1]: Not Active | IC50 [2]: Not Active | IC50 ([3]; insect cells): Not Active | IC50 [4]: Not Active | IC50 [5]: Not Active | IC50 [6]: Not Active | Ki [6]: Not Active | IC50 [7]: Not Active | IC50 [8]: Not Active | IC50 [9]: Not Active | IC50 [10]: Not Active

CNC(=C[N+](=O)[O-])NCCSCc1ccc(CN(C)C)o1 [RANITIDINE]
IC50 [1]: Not Active | IC50 [2]: Not Active | IC50 ([3]; insect cells): Not Active | IC50 [4]: Not Active | IC50 [5]: Not Active | IC50 [6]: Not Active | Ki [6]: Not Active | IC50 [7]: Not Active | IC50 [8]: Not Active | IC50 [9]: Not Active | IC50 [10]: Not Active

CC1=C(CC(=O)O)c2cc(F)ccc2/C1=C\c1ccc([S+](C)[O-])cc1 (stereo not drawn)
IC50 [1]: Not Active | IC50 [2]: Not Active | IC50 ([3]; insect cells): Not Active | IC50 [4]: Not Active | IC50 [5]: Not Active | IC50 [6]: Not Active | Ki [6]: Not Active | IC50 [7]: Not Active | IC50 [8]: Not Active | IC50 [9]: Not Active | IC50 [10]: Not Active

CC(=O)CC(c1ccccc1)c1c(O)c2ccccc2oc1=O (stereo not drawn) [WARFARIN]
IC50 [1]: Not Active | IC50 [2]: Not Active | IC50 ([3]; insect cells): Not Active | IC50 [4]: Not Active | IC50 [5]: Not Active | IC50 [6]: Not Active | Ki [6]: Not Active | IC50 [7]: Not Active | IC50 [8]: Not Active | IC50 [9]: Not Active | IC50 [10]: Not Active

C[C@@H](N)[C@H]1CC[C@H](C(=O)Nc2ccncc2)CC1 [Y-27632]
IC50 [1]: Not Active | IC50 [2]: Not Active | IC50 ([3]; insect cells): Not Active | IC50 [4]: Not Active | IC50 [5]: Not Active | IC50 [6]: Not Active | Ki [6]: Not Active | IC50 [7]: Not Active | IC50 [8]: Not Active | IC50 [9]: Not Active | IC50 [10]: Not Active
